{
  "source": "PubChem BioAssay (NCI)",
  "test_in_all_cases": "NCI-60 cell line screen, 48 h",
  "key": {"U251 CNS": {"test_system": "U251 CNS"}, "M19-MEL melanoma": {"test_system": "M19-MEL melanoma"}, "DLD-1 colon": {"test_system": "DLD-1 colon"}, "DMS 273 small cell lung": {"test_system": "DMS 273 small cell lung"}, "XF 498 CNS": {"test_system": "XF 498 CNS"}, "TK-10 renal": {"test_system": "TK-10 renal"}, "LXFL 529 NSCLC": {"test_system": "LXFL 529 NSCLC"}, "SK-MEL-28 melanoma": {"test_system": "SK-MEL-28 melanoma"}, "KM20L2 colon": {"test_system": "KM20L2 colon"}, "SW-620 colon": {"test_system": "SW-620 colon"}, "DMS 114 small cell lung": {"test_system": "DMS 114 small cell lung"}, "SNB-78 CNS": {"test_system": "SNB-78 CNS"}, "HOP-18 NSCLC": {"test_system": "HOP-18 NSCLC"}},
  "note": "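Values below derive from 48-hour exposures of cells grown in 96-well plates, with endpoints linearly interpolated between the two concentrations bracketing the appropriate inhibition level. TGI: concentration producing complete growth inhibition.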",
  "data": [
    {"molecule": "O=C(c1ccccc1)c1c(CC(O)c2ccccc2)n(C(=O)c2ccccc2)c2ccccc12", "note": "(stereo unspecified)", "values": [
      {"measurement": "TGI", "setting": "U251 CNS", "result": "> 100", "unit": "µM"},
      {"measurement": "TGI", "setting": "M19-MEL melanoma", "result": "> 100", "unit": "µM"},
      {"measurement": "TGI", "setting": "DLD-1 colon", "result": "> 100", "unit": "µM"},
      {"measurement": "TGI", "setting": "DMS 273 small cell lung", "result": "> 100", "unit": "µM"},
      {"measurement": "TGI", "setting": "XF 498 CNS", "result": "> 100", "unit": "µM"},
      {"measurement": "TGI", "setting": "TK-10 renal", "result": "> 100", "unit": "µM"},
      {"measurement": "TGI", "setting": "LXFL 529 NSCLC", "result": "> 100", "unit": "µM"},
      {"measurement": "TGI", "setting": "SK-MEL-28 melanoma", "result": "> 100", "unit": "µM"},
      {"measurement": "TGI", "setting": "KM20L2 colon", "result": "> 100", "unit": "µM"},
      {"measurement": "TGI", "setting": "SW-620 colon", "result": "> 100", "unit": "µM"},
      {"measurement": "TGI", "setting": "DMS 114 small cell lung", "result": "> 100", "unit": "µM"}
    ]},
    {"molecule": "O=C(O)CC1CC=C[C@H]2c3cc4c(cc3C(=O)NC12)OCO4", "note": "(stereo partly specified)", "values": [
      {"measurement": "TGI", "setting": "U251 CNS", "result": "> 75", "unit": "µM"},
      {"measurement": "TGI", "setting": "M19-MEL melanoma", "result": "> 75", "unit": "µM"},
      {"measurement": "TGI", "setting": "DLD-1 colon", "result": "> 75", "unit": "µM"},
      {"measurement": "TGI", "setting": "DMS 273 small cell lung", "result": "> 75", "unit": "µM"},
      {"measurement": "TGI", "setting": "SNB-78 CNS", "result": "> 75", "unit": "µM"},
      {"measurement": "TGI", "setting": "TK-10 renal", "result": "> 75", "unit": "µM"},
      {"measurement": "TGI", "setting": "LXFL 529 NSCLC", "result": "> 75", "unit": "µM"},
      {"measurement": "TGI", "setting": "SK-MEL-28 melanoma", "result": "> 75", "unit": "µM"},
      {"measurement": "TGI", "setting": "KM20L2 colon", "result": "> 75", "unit": "µM"},
      {"measurement": "TGI", "setting": "SW-620 colon", "result": "> 75", "unit": "µM"},
      {"measurement": "TGI", "setting": "DMS 114 small cell lung", "result": "> 75", "unit": "µM"}
    ]},
    {"molecule": "COc1ccc(C[C@H](N)C(=O)N2C[C@@H](CO)C[C@@H](n3cnc4c(N(C)C)ncnc43)C2)cc1", "values": [
      {"measurement": "TGI", "setting": "U251 CNS", "result": "> 100", "unit": "µM"},
      {"measurement": "TGI", "setting": "M19-MEL melanoma", "result": "> 100", "unit": "µM"},
      {"measurement": "TGI", "setting": "HOP-18 NSCLC", "result": "> 100", "unit": "µM"},
      {"measurement": "TGI", "setting": "DLD-1 colon", "result": "> 100", "unit": "µM"},
      {"measurement": "TGI", "setting": "DMS 273 small cell lung", "result": "> 100", "unit": "µM"},
      {"measurement": "TGI", "setting": "SNB-78 CNS", "result": "> 100", "unit": "µM"},
      {"measurement": "TGI", "setting": "TK-10 renal", "result": "> 100", "unit": "µM"},
      {"measurement": "TGI", "setting": "LXFL 529 NSCLC", "result": "> 100", "unit": "µM"},
      {"measurement": "TGI", "setting": "SK-MEL-28 melanoma", "result": "> 100", "unit": "µM"},
      {"measurement": "TGI", "setting": "KM20L2 colon", "result": "> 100", "unit": "µM"},
      {"measurement": "TGI", "setting": "SW-620 colon", "result": "> 100", "unit": "µM"},
      {"measurement": "TGI", "setting": "DMS 114 small cell lung", "result": "> 100", "unit": "µM"}
    ]},
    {"molecule": "O=C(Nn1cnn2c(=O)c3ccccc3nc2c1=O)c1ccccc1", "values": [
      {"measurement": "TGI", "setting": "U251 CNS", "result": "> 100", "unit": "µM"},
      {"measurement": "TGI", "setting": "TK-10 renal", "result": "> 100", "unit": "µM"},
      {"measurement": "TGI", "setting": "SK-MEL-28 melanoma", "result": "> 100", "unit": "µM"},
      {"measurement": "TGI", "setting": "SW-620 colon", "result": "> 100", "unit": "µM"}
    ]},
    {"molecule": "CN(C)c1ccc(C(=NN)c2ccc(N(C)C)cc2)cc1", "values": [
      {"measurement": "TGI", "setting": "U251 CNS", "result": 9.21, "unit": "µM"},
      {"measurement": "TGI", "setting": "TK-10 renal", "result": 3.66, "unit": "µM"},
      {"measurement": "TGI", "setting": "SK-MEL-28 melanoma", "result": "> 100", "unit": "µM"},
      {"measurement": "TGI", "setting": "SW-620 colon", "result": "> 100", "unit": "µM"}
    ]},
    {"molecule": "CCN(CC)CCNc1ccc(C)c2sc3ccccc3c(=O)c12", "values": [
      {"measurement": "TGI", "setting": "U251 CNS", "result": 5.65, "unit": "µM"},
      {"measurement": "TGI", "setting": "TK-10 renal", "result": 11, "unit": "µM"},
      {"measurement": "TGI", "setting": "SK-MEL-28 melanoma", "result": 3.51, "unit": "µM"},
      {"measurement": "TGI", "setting": "SW-620 colon", "result": 4.35, "unit": "µM"}
    ]}
  ]
}
